Results from patent US8299209B2, “Pharmaceutical composition comprising cyclic somatostatin analogues” (Novartis AG, priority 2003, dated 2012).
Numbered stars: 1 amine (or outer) side, 2 acyl side, 3 side chain; on linkers, the order of the positions; unused ones are H or OH. Square brackets hold non-standard residues; d marks the D form. Side chains are listed from the residue outwards. Peptide text beside a SMILES is read from it. * marks the point of attachment. ξ: configuration not given here. Ethylenediamine = C(CN[*:2])N[*:1]; dPhg = N[C@@H](C(=O)O)c1ccccc1; ξHyp = O=C(O)C1CC(O)CN1; CO = O=C([*:1])[*:2]; Bn = c1ccc(C*)cc1

Legend:
hsst1 = hsst1 (Homo sapiens, UniProt P30872)
Procedure: The binding assays may be carried out as disclosed hereunder using membranes from cell lines expressing selectively and stably hsst1, hsst2, hsst3, hsst4 or hsst5, e.g. CHO or COS cells.
Membranes prepared from hsst selective cell lines, e.g. CHO or COS cells stably expressing hsst1 or hsst2 or hsst3 or hsst4 or hsst5 are incubated in triplicate in a total volume of 300 μl at 22° C. for 30 min with increasing concentrations of [^125I-Tyr^11]-SRIF-14 in 10 mmol/l Hepes buffer (pH 7.6) containing 0.5% BSA. The incubation is terminated by rapid filtration and the filters are counted in a counter. Specific binding is total binding minus non-specific binding in the presence of 1 μmol/l somatostatin-14. The experiments are carried out in triplicate. The affinity constant (KD) and number of binding sites are calculated using appropriate statistics and graphical programs.

hsst5 = biological target: T1, hsst5 (Homo sapiens, UniProt P35346); test: competition binding assay on membranes of cells expressing hsst5; details: IC50 value in the nMolar range
T1 construct: expressed in transfected cells
Procedure: (§1) The experiments are carried out in triplicate.

cultured pituitary cells = test: inhibition of GH release in vitro from cultured pituitary cells; type: cell-based; details: rat anterior pituitary cells, three hours, 3×10^−10 M growth hormone releasing factor
Procedure: For example, anterior pituitary glands from adult male rats are cut into small pieces and dispersed using 0.1% trypsin in 20 mM HEPES buffer. The dispersed cells are cultured for four days in MEM (Gibco) supplemented with 5% fetal calf serum, 5% horse serum, 1 mM NaHCO3, 2.5 nM dexamethasone, 2.5 mg/ml insulin and 20 U/ml Pen/Strep. On the day of the experiment the attached cells are washed two times with Krebs-Ringer medium buffered with 20 mM HEPES and supplemented with 5 mM glucose and 0.2% BSA. […] The amount of growth hormone released into the medium is measured by RIA.

hsst3 = biological target: T2, hsst3 (Homo sapiens, UniProt P32745); test: competition binding assay on membranes of cells expressing hsst3
T2 construct: expressed in transfected cells
Procedure: as §1

hsst2 = biological target: T3, hsst2 (Homo sapiens, UniProt P30874); test: competition binding assay on membranes of cells expressing hsst2
T3 construct: expressed in transfected cells
Procedure: as §1

growth hormone release = test: inhibition of growth hormone (GH) release in rats; type: in vivo, rat; details: s.c. to anaesthetized rats
Procedure: Compound B is administered s.c. to anaesthetized rats. Blood is collected after decapitation 1 h after administration of the compound. The duration of action is estimated on the basis of the inhibition of basal GH secretion 6 h after drug treatment. Hormone levels are measured by RIA 1 h and 6 h after treatment. The ID50-value for the inhibition of the hormone secretion is determined graphically (log-probit) for each experiment and the resulting values are averaged logarithmically.

[1] = storage stability of the composition; type: physicochemical; details: in the composition of the invention
Procedure: For example, less than 2.5% of degradation products were found after 4 weeks storage at 60° C. For example, if stored with light protection at 2° C. to 8° C., the compositions of the invention are stable over 24 months.

T2 sequence (P32745 whole entry): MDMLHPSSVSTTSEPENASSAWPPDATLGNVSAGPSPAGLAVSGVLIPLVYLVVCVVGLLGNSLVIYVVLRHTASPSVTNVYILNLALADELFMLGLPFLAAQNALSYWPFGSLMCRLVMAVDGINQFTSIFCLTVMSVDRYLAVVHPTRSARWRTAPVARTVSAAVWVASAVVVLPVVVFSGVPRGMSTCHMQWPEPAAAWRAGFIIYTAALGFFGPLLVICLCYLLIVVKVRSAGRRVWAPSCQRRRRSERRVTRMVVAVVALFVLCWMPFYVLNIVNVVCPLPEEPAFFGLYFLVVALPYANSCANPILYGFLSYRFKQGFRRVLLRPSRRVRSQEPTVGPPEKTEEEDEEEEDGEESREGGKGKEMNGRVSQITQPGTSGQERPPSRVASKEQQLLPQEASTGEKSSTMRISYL
Sequence of hsst1 (P30872 whole entry): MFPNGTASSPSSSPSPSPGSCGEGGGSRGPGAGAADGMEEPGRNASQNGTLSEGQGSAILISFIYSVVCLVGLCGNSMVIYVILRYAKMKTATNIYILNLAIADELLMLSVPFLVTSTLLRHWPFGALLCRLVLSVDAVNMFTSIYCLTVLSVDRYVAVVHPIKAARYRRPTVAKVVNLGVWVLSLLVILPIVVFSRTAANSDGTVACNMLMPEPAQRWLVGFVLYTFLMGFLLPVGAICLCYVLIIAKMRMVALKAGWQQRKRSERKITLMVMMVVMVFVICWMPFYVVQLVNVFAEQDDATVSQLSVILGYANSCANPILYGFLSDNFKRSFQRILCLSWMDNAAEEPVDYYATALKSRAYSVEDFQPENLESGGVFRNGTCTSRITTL
T1 sequence (P35346 whole entry): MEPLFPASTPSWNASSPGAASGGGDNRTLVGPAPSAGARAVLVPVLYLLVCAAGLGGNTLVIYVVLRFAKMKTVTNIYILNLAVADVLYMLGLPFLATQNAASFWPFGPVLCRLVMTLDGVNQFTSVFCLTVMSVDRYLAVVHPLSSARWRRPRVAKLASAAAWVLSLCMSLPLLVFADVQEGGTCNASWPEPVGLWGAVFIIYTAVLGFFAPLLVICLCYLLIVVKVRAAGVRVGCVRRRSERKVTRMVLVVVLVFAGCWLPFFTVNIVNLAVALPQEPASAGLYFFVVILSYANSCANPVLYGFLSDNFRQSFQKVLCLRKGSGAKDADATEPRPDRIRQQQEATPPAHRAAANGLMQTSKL
T3 sequence (P30874 whole entry): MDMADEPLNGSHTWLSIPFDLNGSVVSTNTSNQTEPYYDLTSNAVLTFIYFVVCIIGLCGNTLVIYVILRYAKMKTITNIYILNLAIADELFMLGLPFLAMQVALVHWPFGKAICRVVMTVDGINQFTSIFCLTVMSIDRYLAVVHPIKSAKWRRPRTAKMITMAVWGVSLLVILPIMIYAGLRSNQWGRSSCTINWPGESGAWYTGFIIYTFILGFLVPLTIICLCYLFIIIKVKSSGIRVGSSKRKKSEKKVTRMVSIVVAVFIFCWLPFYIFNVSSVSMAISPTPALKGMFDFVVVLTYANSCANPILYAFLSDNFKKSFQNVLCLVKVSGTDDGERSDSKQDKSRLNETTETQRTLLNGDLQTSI

Row | Compound | binding affinity towards hsst1 (in words) (hsst1) | binding affinity towards hsst5 (in words) (hsst5) | inhibition of GH release in vitro (cultured pituitary cells) | binding affinity towards hsst3 (in words) (hsst3) | binding affinity towards hsst2 (in words) (hsst2) | inhibition of growth hormone release in vivo (growth hormone release) | stability (in words) [1]
1 | NCCCC[C@@H]1NC(=O)[C@@H](Cc2c[nH]c3ccccc23)NC(=O)[C@@H](c2ccccc2)NC(=O)C2CC(OC(=O)NCCN)CN2C(=O)[C@H](Cc2ccccc2)NC(=O)[C@H](Cc2ccc(OCc3ccccc3)cc2)NC1=O (stereo partly drawn) [Compound B, cyclo[{4-(NH2—C2H4—NH—CO—O—)Pro}-DPhg-DTrp-Lys-Tyr(4-Bzl)-Phe]] (cyclo([ξHyp]([CO-Ethylenediamine])[dPhg][dW]KY(Bn)F)) | no significant binding affinity | good binding affinity | GH-release inhibiting activity | low binding affinity | no significant binding affinity | inhibits growth hormone release | –
2 | cyclo[{4-(NH2—C2H4—NH—CO—O—)Pro}-Phg-DTrp-Lys-Tyr(4-Bzl)-Phe] [diaspartate salt of Compound A] | – | – | – | – | – | – | Particularly good stability
